Source: patent US8435990B2, “Dihydropyrimidone amides as P2X7 modulators” (Roche Palo Alto LLC, priority 2009, dated 2013)

Target: T1, human P2X7 (Homo sapiens, UniProt Q99572)
T1 construct: 1321N1 cells stably expressing the full length human P2X7 gene (1321N1-hP2X7)
T1 sequence (Q99572 1-595): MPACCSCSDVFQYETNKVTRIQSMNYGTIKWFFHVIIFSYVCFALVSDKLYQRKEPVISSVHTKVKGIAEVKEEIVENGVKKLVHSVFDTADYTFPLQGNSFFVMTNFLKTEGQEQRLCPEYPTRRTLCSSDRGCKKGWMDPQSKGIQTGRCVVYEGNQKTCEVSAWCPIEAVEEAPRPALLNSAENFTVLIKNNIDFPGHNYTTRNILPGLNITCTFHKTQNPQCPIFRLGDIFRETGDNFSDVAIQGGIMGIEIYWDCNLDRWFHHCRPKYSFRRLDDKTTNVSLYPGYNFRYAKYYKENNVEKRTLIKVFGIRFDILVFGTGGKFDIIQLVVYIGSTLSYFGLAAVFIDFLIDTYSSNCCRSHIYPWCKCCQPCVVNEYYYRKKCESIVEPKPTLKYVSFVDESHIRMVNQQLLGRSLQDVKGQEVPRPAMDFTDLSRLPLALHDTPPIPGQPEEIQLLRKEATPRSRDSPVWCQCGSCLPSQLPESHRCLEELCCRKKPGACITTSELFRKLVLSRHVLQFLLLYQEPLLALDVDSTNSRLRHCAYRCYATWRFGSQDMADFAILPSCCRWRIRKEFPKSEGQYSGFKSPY
Experiment: P2X7 modulator pIC50 of Table 1 (assay not given; Intracellular Calcium Flux (FLIPR) Assay assumed)
Type: cell-based
Protocol: Intracellular Calcium Flux (FLIPR) Assay
Stock solutions of compounds were prepared from powders as a 10 mM DMSO stock solution. These solutions were stored at RT during the two week period of these experiments to prevent freeze-thaw of the DMSO stocks. The DMSO stocks were added to the appropriate assay buffer at a concentration of 10 μM, and then diluted serially to the final concentrations that were tested. No observable precipitate was formed at any time during this process. The aqueous solutions of compounds as well as ATP (Sigma A7699) and BzATP (Sigma B6396) were prepared fresh for each day of experiment.
1321N1 cells stably expressing the full length human P2X7 gene (1321N1-hP2X7) and HEK293 cells stably expressing the full length rat P2X7 gene (HEK293-rP2X7) were obtained from the Roche Cell Culture Facility. 1321N1-hP2X7 cells were grown in Dulbecco's Modified Eagle's Medium (DMEM) high glucose supplemented with 10% FBS and 250 μg/mL G418. HEK293-rP2X7 cells were grown in DMEM/F-12 supplemented with 10% FBS, 1 mM CaCl2, 2 mM MgCl2, 2 mM L-Glutamine and 500 μg/ml G418. Cells were split such that they never became >70% confluent.
On the day prior to the experiment, 1321N1-hP2X7 or HEK293-rP2X7 cells were released into suspension with calcium-free PBS+Versene and washed by centrifugation with calcium-free PBS to remove the Versene. Cells were resuspended in growth medium at a density of 2.5×10^5 cells/mL and seeded into black walled, clear bottom 96 well plates (50,000 cells/well) approximately 18 hr prior to intracellular calcium flux experiments.
On the day of the experiment, plates were washed with FLIPR buffer (calcium- and magnesium-free Hank's Balanced Salt Solution (HBSS) supplemented with 10 mM Hepes, 2.5 mM probenecid and 2 mM calcium chloride) using a BIO-TEK 96 channel plate washer and incubated with […] fluo-3 dye at 37° C. for one hr. The dye was then removed by plate washing and the cells were allowed to equilibrate for 20 min at room temperature with antagonist or vehicle (FLIPR buffer). Agonist (100 μM BzATP final concentration for hP2X7; 5μM BzATP final concentration or rP2X7) was added online with the FLIPR and fluorescence measurements made at 1 sec intervals for 60 sec followed by 3 sec intervals for a further 4 min (5 min total). A final addition of 5 μM ionomycin was made and the maximal BzATP-evoked fluorescence normalized to the maximal ionomycin-evoked fluorescence.

Structure (SMILES) | IC50 [µM]
COc1cc(C)c(NC(=O)C2=CN(C)C(=O)N[C@H]2c2ccc(F)cc2)cc1OC [Compound 6, (S)-4-(4-Fluoro-phenyl)-1-methyl-2-oxo-1,2,3,4-tetrahydro-pyrimidine-5-carboxylic acid (4,5-dimethoxy-2-methyl-phenyl)-amide] | 0.0351
Cc1cc(F)c(-n2ncccc2=O)cc1NC(=O)C1=CN(C)C(=O)N[C@H]1c1ccc(F)cc1 [Compound 69, (S)-4-(4-Fluoro-phenyl)-1-methyl-2-oxo-1,2,3,4-tetrahydro-pyrimidine-5-carboxylic acid [4-fluoro-2-methyl-5-(6-oxo-6H-pyridazin-1-yl)-phenyl]-amide] | 0.0193
Cc1cc(F)c(OCCO)cc1NC(=O)C1=CN(C)C(=O)N[C@H]1c1ccc(F)cc1 [Compound 16, (S)-4-(4-Fluoro-phenyl)-1-methyl-2-oxo-1,2,3,4-tetrahydro-pyrimidine-5-carboxylic acid [4-fluoro-5-(2-hydroxy-ethoxy)-2-methyl-phenyl]-amide] | 0.00923
Cc1cc(F)c(-c2cccn(C)c2=O)cc1NC(=O)C1=CN(C)C(=O)N[C@H]1c1ccc(F)cc1 [Compound 70, (S)-4-(4-Fluoro-phenyl)-1-methyl-2-oxo-1,2,3,4-tetrahydro-pyrimidine-5-carboxylic acid [4-fluoro-2-methyl-5-(1-methyl-2-oxo-1,2-dihydro-pyridin-3-yl)-phenyl]-amide] | 0.0331
Cc1ccc(-c2nnc(C)n2C)cc1NC(=O)C1=CN(C)C(=O)N[C@H]1c1ccc(F)cc1 [Compound 18, (S)-4-(4-Fluoro-phenyl)-1-methyl-2-oxo-1,2,3,4-tetrahydro-pyrimidine-5-carboxylic acid [5-(4,5-dimethyl-4H-[1,2,4]triazol-3-yl)-2-methyl-phenyl]-amide] | 0.0221
CCn1c(=O)cnn(-c2ccc(C)c(NC(=O)C3=CN(C)C(=O)N[C@H]3c3ccc(F)cc3)c2)c1=O [Compound 64, (S)-4-(4-Fluoro-phenyl)-1-methyl-2-oxo-1,2,3,4-tetrahydro-pyrimidine-5-carboxylic acid [5-(4-ethyl-3,5-dioxo-4,5-dihydro-3H-[1,2,4]triazin-2-yl)-2-methyl-phenyl]-amide] | 0.0166
Cc1ccc(-c2ccnn(C)c2=O)cc1NC(=O)C1=CN(C)C(=O)N[C@H]1c1ccccc1 [Compound 57, (S)-1-Methyl-2-oxo-4-phenyl-1,2,3,4-tetrahydro-pyrimidine-5-carboxylic acid [2-methyl-5-(2-methyl-3-oxo-2,3-dihydro-pyridazin-4-yl)-phenyl]-amide] | 3.47
Cc1ccc(=O)n(-c2ccc(C)c(NC(=O)C3=CN(C)C(=O)N[C@H]3c3ccc(F)cc3)c2)n1 [Compound 27, (S)-4-(4-Fluoro-phenyl)-1-methyl-2-oxo-1,2,3,4-tetrahydro-pyrimidine-5-carboxylic acid [2-methyl-5-(3-methyl-6-oxo-6H-pyridazin-1-yl)-phenyl]-amide] | 0.0403
Cc1cc(-c2ccc(C)c(NC(=O)C3=CN(C)C(=O)N[C@H]3c3cccc(F)c3)c2)n[nH]1 [Compound 33, (S)-4-(3-Fluoro-phenyl)-1-methyl-2-oxo-1,2,3,4-tetrahydro-pyrimidine-5-carboxylic acid [2-methyl-5-(5-methyl-1H-pyrazol-3-yl)-phenyl]-amide] | 0.107
Cc1ccc(-n2c(=O)cc[nH]c2=O)cc1NC(=O)C1=CN(C)C(=O)N[C@H]1c1ccc(F)cc1 [Compound 56, (S)-4-(4-Fluoro-phenyl)-1-methyl-2-oxo-1,2,3,4-tetrahydro-pyrimidine-5-carboxylic acid [5-(2,6-dioxo-3,6-dihydro-2H-pyrimidin-1-yl)-2-methyl-phenyl]-amide] | 3.16
Cc1cc2cnn(CCO)c2cc1NC(=O)C1=CN(C)C(=O)N[C@H]1c1ccc(F)cc1 [Compound 42] | 0.0145
Cc1ccc(-n2ncccc2=O)cc1NC(=O)C1=CN(C)C(=O)N[C@H]1c1ccc(F)cc1 [Compound 26] | 0.02
Cc1cc(Cl)c(OCCO)cc1NC(=O)C1=CN(C)C(=O)N[C@@H]1C1CCCCC1 [Compound 29, (R)-4-Cyclohexyl-1-methyl-2-oxo-1,2,3,4-tetrahydro-pyrimidine-5-carboxylic acid [4-chloro-5-(2-hydroxy-ethoxy)-2-methyl-phenyl]-amide] | 0.0547
Cc1ccc(-c2ccc(=O)n(CCO)n2)cc1NC(=O)C1=CN(C)C(=O)N[C@H]1c1ccc(F)cc1 [Compound 59, (S)-4-(4-Fluoro-phenyl)-1-methyl-2-oxo-1,2,3,4-tetrahydro-pyrimidine-5-carboxylic acid {5-[1-(2-hydroxy-ethyl)-6-oxo-1,6-dihydro-pyridazin-3-yl]-2-methyl-phenyl}-amide] | 0.0168
Cc1ccc(-c2ccnn(C)c2=O)cc1NC(=O)C1=CN(C)C(=O)NC1C1CCC(F)(F)CC1 (centres unmarked) [Compound 52, 4-(4,4-Difluoro-cyclohexyl)-1-methyl-2-oxo-1,2,3,4-tetrahydro-pyrimidine-5-carboxylic acid [2-methyl-5-(2-methyl-3-oxo-2,3-dihydro-pyridazin-4-yl)-phenyl]-amide] | 0.339
COc1ccc(-c2ccc(C)c(NC(=O)C3=CN(C)C(=O)N[C@H]3c3ccc(F)cc3)c2)nn1 [Compound 55, (S)-4-(4-Fluoro-phenyl)-1-methyl-2-oxo-1,2,3,4-tetrahydro-pyrimidine-5-carboxylic acid [5-(6-methoxy-pyridazin-3-yl)-2-methyl-phenyl]-amide] | 0.011
COc1cc(C)c(NC(=O)C2=CN(CCO)C(=O)NC2c2ccc(F)cc2)cc1OC (centres unmarked) [Compound 12, 4-(4-Fluoro-phenyl)-1-(2-hydroxy-ethyl)-2-oxo-1,2,3,4-tetrahydro-pyrimidine-5-carboxylic acid (4,5-dimethoxy-2-methyl-phenyl)-amide] | 0.111
COc1cc(C)c(NC(=O)C2=CNC(=O)N[C@H]2c2ccc(F)cc2)cc1OC [Compound 4, (S)-4-(4-Fluoro-phenyl)-2-oxo-1,2,3,4-tetrahydro-pyrimidine-5-carboxylic acid (4,5-dimethoxy-2-methyl-phenyl)-amide] | 0.0598
Cc1ccc(-n2ccccc2=O)cc1NC(=O)C1=CN(C)C(=O)N[C@H]1c1ccc(F)cc1 [Compound 54, (S)-4-(4-Fluoro-phenyl)-1-methyl-2-oxo-1,2,3,4-tetrahydro-pyrimidine-5-carboxylic acid [2-methyl-5-(2-oxo-2H-pyridin-1-yl)-phenyl]-amide] | 0.0216
Cc1cc2cnn(C)c2cc1NC(=O)C1=CN(C)C(=O)N[C@H]1c1ccc(F)cc1 [Compound 46] | 0.0122
COC[C@H](O)Cn1nccc(-c2ccc(C)c(NC(=O)C3=CN(C)C(=O)N[C@H]3c3ccc(F)cc3)c2)c1=O [Compound 43, (S)-4-(4-Fluoro-phenyl)-1-methyl-2-oxo-1,2,3,4-tetrahydro-pyrimidine-5-carboxylic acid {5-[2-((R)-2-hydroxy-3-methoxy-propyl)-3-oxo-2,3-dihydro-pyridazin-4-yl]-2-methyl-phenyl}-amide] | 0.0299
Cc1cc2cn[nH]c2cc1NC(=O)C1=CN(C)C(=O)N[C@H]1c1ccc(F)cc1 [Compound 47, (S)-4-(4-Fluoro-phenyl)-1-methyl-2-oxo-1,2,3,4-tetrahydro-pyrimidine-5-carboxylic acid (5-methyl-1H-indazol-6-yl)-amide] | 0.0182
COc1cc(C)c(NC(=O)C2=CN(C)C(=O)NC2c2ccc(F)cc2)cc1OC (centres unmarked) [Compound 2, 4-(4-Fluoro-phenyl)-1-methyl-2-oxo-1,2,3,4-tetrahydro-pyrimidine-5-carboxylic acid (4,5-dimethoxy-2-methyl-phenyl)-amide] | 0.0412
